These are literature values, as cited in patent US20260015580A1, “Methods of Producing and Using Avian Embryonic Stem Cells and Avian Telencephalic Organoids” (The Regents of the University of California, priority 2022, published 2026).

The structures appear in SMILES notation.

In this data set the test system is phosphorylation of ERK in C26 cells. Conditions: read-out: IC50, suppressing the phosphorylation of ERK.

As to `O=C(NOC[C@H](O)CO)c1ccc(F)c(F)c1Nc1ccc(I)cc1F` [PD0325901], the 50% inhibitory concentration (IC50) is 0.33 nM.

A word on the IC50: it is the midpoint of a concentration-inhibition curve.
